These results are taken from ChEMBL document CHEMBL1201862, “PubChem BioAssay data set” (2004).

The target of experiment [1] is G-protein coupled receptor 55 (Homo sapiens, UniProt Q9Y2T6). Kind of experiment: inhibition of LPI-stimulated GPR55 beta-arrestin translocation – imaging, U2OS, beta-arrestin-GFP, LPI agonist, primary screen (AID 2013).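 Note: antagonist potency measured as reduced agonist-driven arrestin aggregation.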 In kind it is functional.
The subject of a further experiment is CHO-K1. Description: Counterscreen for antagonists of the orexin 1 receptor (OX1R; HCRTR1): Homogeneous time resolved fluorescence (HTRF)-based cell-based dose response assay to identify antagonists of the parental CHO-K1 cell line. [Related pubchem assays (depositor defined):AID434989, AID435008, AID463079, AID485270, AID492963, AID492964, AID492965, AID493232, AID504699, AID504701]. The class given is functional. As to conditions: Cricetulus griseus. In general terms: A counterscreen serves to expose hits that act by an unwanted route or on another target.

The nature of experiment [2]: THP-1 cell cytotoxicity, dose response, cytotoxicity control for non-replicating M. tuberculosis project (AID 489025). In kind it is functional.
A short description of experiment [3]: HepG2 cell cytotoxicity, dose response, cytotoxicity control for non-replicating M. tuberculosis project (AID 489018). In kind it is functional. The following applies: Mycobacterium tuberculosis.
Experiment [4] is described as follows: Counterscreen for antagonists of the orexin 1 receptor (OX1R; HCRTR1): Fluorescence-based cell-based high throughput dose response assay to identify antagonists of the parental CHO cell line. [Related pubchem assays (depositor defined):AID434989, AID435008, AID463079, AID485270, AID492963, AID492964, AID492965, AID493232, AID504699, AID504701]. In kind it is functional.

Experiment [5] has as its target T1, Orexin/Hypocretin receptor type 1 (Homo sapiens, UniProt O43613).
T1 sequence (O43613 whole entry): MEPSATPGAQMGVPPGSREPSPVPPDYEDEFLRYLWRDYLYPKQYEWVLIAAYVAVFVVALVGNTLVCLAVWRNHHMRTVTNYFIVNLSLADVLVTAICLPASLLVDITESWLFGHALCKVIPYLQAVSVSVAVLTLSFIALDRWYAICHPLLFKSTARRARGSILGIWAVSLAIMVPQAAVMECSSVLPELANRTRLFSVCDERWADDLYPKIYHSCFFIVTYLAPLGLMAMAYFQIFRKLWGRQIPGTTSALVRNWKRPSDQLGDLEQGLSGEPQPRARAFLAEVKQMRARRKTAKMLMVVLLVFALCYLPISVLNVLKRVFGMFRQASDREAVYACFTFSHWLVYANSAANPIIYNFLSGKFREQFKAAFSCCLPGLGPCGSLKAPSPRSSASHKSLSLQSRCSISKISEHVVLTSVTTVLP
Kind of experiment: Homogeneous Time Resolved Fluorescence (HTRF)-based cell-based high throughput dose response assay for antagonists of the orexin 1 receptor (OX1R; HCRTR1). [Related pubchem assays (depositor defined):AID434989, AID435008, AID463079, AID485270, AID492963, AID492964, AID492965, AID493232, AID504717, AID504718]. The class given is functional. A general note: Time-resolved FRET reads energy transfer from a long-lived donor to a nearby acceptor.

The target of experiment [6] is T1, Orexin/Hypocretin receptor type 1. Kind of experiment: Fluorescence-based cell-based high throughput dose response assay for antagonists of the orexin 1 receptor (OX1R; HCRTR1). [Related pubchem assays (depositor defined):AID434989, AID435008, AID463079, AID485270, AID492963, AID492964, AID492965, AID493232, AID504717, AID504718]. In kind it is functional.
Another experiment is described as follows: cells. In kind it is functional.
The target of experiment [7] is T2, RNA-editing ligase 1, mitochondrial (Trypanosoma brucei brucei, UniProt P86926).
T2 sequence (P86926 whole entry): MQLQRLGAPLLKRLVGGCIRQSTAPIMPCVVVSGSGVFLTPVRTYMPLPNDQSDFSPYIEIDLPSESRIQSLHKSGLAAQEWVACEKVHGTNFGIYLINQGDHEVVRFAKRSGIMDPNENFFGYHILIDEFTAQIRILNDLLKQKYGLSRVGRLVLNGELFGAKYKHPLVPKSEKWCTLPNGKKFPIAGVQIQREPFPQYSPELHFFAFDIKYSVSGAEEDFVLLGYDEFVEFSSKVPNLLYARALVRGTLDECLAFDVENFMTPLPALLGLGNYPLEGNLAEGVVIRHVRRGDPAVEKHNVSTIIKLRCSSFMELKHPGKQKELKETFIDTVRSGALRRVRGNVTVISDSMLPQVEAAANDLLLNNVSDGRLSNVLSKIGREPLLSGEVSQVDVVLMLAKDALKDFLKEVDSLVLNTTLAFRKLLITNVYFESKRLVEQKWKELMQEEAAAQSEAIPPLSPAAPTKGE
Kind of experiment: inhibition of trypanosome RNA editing ligase – biochemical, fluorescence, Trypanosoma brucei, dose response (AID 1117295). In kind it is functional.

The next experiment deals with SUMO-activating enzyme (Homo sapiens, UniProt Q9UBT2). Description: blockers of UBC9-mediated SUMO conjugation – biochemical, AlphaScreen, SUMOylation inhibitor project, confirmation (AID 2018). In kind it is functional.
SUMO-activating enzyme, sequence (Q9UBE0 whole entry): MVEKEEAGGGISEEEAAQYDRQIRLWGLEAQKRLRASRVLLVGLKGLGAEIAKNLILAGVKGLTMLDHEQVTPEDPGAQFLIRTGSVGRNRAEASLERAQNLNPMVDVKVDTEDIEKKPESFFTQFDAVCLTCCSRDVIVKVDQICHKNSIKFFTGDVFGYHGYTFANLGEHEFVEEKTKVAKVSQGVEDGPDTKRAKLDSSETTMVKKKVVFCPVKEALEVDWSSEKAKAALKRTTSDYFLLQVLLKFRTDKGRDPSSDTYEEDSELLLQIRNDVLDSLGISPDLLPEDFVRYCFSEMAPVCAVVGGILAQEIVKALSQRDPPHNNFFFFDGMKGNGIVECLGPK
SUMO-activating enzyme, sequence (Q9UBT2 whole entry): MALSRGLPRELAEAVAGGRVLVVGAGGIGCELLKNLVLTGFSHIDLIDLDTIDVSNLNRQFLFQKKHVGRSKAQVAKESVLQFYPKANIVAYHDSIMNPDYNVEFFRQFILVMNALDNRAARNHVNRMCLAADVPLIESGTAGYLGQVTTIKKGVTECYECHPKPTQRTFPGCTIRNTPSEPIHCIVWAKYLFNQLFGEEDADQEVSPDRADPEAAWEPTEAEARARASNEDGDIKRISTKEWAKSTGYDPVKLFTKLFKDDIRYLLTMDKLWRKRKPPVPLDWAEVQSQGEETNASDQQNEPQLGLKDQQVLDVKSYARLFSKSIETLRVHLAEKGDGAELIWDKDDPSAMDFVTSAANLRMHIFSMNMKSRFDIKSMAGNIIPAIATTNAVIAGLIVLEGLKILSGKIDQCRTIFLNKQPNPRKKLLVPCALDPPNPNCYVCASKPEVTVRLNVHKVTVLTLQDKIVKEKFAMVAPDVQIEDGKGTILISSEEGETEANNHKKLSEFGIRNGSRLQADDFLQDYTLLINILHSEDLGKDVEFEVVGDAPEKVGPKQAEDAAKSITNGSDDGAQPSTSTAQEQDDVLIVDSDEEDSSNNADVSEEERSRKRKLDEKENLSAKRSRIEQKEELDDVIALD
A short description of experiment [8]: luciferase reporter signal suppression in cells – H4 neuroglioma cells, luminescence, dose response (AID 1990). In kind it is functional, cell-based. For orientation: Reporter assays use an easily measured gene product as a stand-in for the process of interest.
Experiment [9] is described as follows: Luminescence Cell-Based Dose Response HTS to Identify Inhibitors of 5'UTR Stem-Loop Driven Prion Protein mRNA Translation in H4 Neuroglioblastoma Cells. [Related pubchem assays: 1827 (Project Summary), 1813 (Primary HTS)]. The class given is functional.
Experiment [10] in a line: alpha-synuclein stem-loop luciferase translation blockers – H4 neuroglioma cells, luminescence, confirmation (AID 1988). In kind it is functional, cell-based.
The next experiment has as its target SUMO E1/E2 (Homo sapiens, UniProt P63279+Q9UBE0+Q9UBT2). Description: SAR analysis of SUMOylation using HTRF in an in-Vitro dose response assay. [Related pubchem assays (depositor defined):AID2006, AID2011, AID2018, AID2069, AID2658]. In kind it is functional.
The target in a further experiment is T3, Exodeoxyribonuclease V (Escherichia coli (strain K12), UniProt P04993+P07648+P08394).
T3 sequence (P04993 whole entry): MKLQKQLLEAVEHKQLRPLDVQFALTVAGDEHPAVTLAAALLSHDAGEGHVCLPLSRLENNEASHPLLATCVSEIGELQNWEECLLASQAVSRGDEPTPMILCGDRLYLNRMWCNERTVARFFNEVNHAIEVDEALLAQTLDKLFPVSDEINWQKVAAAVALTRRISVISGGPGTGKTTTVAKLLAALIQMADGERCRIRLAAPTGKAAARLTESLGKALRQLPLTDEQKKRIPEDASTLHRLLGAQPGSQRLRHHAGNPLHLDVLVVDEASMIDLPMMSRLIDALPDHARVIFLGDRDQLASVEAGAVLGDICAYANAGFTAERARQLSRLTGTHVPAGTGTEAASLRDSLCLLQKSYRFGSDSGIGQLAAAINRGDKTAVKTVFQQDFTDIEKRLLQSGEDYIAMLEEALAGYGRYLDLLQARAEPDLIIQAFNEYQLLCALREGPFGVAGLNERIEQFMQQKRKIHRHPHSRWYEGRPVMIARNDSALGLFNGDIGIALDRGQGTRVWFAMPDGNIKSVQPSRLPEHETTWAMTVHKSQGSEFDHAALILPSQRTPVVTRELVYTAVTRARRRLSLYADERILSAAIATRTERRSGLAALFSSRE
T3 sequence (P07648 whole entry): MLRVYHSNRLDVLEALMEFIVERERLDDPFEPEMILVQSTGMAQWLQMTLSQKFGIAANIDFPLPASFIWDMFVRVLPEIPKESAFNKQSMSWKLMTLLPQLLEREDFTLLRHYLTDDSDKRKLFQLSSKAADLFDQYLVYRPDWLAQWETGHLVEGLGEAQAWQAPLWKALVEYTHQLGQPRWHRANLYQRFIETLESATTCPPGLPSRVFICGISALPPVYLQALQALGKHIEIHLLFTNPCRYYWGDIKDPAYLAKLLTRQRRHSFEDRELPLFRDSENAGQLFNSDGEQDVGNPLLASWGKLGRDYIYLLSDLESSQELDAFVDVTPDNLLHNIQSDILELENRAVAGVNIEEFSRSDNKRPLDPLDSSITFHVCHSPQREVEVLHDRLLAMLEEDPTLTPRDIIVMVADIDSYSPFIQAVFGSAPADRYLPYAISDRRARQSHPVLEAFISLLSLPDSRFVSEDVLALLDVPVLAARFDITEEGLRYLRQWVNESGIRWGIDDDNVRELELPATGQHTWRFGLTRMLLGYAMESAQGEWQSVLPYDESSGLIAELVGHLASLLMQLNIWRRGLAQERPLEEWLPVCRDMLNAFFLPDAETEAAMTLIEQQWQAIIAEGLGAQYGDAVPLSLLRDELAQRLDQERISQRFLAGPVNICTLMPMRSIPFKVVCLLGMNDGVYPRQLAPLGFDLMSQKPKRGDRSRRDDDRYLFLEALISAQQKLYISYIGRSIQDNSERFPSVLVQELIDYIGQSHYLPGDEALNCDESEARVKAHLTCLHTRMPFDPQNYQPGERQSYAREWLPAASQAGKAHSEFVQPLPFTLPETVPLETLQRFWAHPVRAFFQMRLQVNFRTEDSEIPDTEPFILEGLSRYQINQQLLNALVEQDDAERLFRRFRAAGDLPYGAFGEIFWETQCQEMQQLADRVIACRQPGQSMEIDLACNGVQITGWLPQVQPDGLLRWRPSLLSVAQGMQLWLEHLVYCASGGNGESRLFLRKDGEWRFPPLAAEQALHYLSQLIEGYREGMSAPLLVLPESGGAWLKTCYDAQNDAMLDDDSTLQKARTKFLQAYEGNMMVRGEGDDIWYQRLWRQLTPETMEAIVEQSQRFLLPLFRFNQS
T3 sequence (P08394 whole entry): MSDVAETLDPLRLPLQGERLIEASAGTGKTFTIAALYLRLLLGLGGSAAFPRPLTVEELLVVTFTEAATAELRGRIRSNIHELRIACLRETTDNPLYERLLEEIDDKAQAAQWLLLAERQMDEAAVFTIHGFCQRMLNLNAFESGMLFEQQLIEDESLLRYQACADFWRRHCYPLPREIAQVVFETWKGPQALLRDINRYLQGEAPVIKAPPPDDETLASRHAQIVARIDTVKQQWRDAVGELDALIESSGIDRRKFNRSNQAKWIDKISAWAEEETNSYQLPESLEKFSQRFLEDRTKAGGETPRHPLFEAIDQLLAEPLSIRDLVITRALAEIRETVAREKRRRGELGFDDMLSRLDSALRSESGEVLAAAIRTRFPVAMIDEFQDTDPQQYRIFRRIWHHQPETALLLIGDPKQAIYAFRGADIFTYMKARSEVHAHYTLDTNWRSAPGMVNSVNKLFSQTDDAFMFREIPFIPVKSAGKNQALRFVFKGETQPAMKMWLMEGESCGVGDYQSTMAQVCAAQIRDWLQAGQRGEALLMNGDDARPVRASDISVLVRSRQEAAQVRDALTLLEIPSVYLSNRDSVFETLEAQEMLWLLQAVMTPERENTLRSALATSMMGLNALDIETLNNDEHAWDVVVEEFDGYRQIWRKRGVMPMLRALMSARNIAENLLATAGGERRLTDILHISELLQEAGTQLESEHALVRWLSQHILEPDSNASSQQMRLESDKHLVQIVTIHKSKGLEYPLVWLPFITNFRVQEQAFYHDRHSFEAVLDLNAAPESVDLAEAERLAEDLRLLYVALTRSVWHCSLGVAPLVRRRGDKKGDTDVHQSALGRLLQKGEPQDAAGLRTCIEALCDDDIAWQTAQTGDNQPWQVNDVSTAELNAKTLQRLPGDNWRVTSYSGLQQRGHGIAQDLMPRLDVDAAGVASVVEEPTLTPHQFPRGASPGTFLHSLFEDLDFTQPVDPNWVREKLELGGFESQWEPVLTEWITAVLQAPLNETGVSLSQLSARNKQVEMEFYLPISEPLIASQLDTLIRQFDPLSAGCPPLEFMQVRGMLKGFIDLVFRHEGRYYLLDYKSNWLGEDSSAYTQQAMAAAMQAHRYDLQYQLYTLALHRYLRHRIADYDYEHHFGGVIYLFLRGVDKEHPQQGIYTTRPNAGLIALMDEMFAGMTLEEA
Description: RecBCD inhibition via phage-restricted bacterial growth – absorbance, V66 E. coli, mutant T4 phage, counter-screen for AddAB inhibitor project, dose response (AID 492957). In kind it is functional, cell-based, Escherichia coli str. K-12 substr. MG1655.

Experiment [11] is described as follows: Counterscreen for AddAB inhibitors: absorbance-based bacterial cell-based high throughput dose response assay for inhibitors of bacterial viability. [Related pubchem assays (depositor defined):AID435030, AID449728, AID449731, AID488942, AID488955, AID488956]. In kind it is functional.

The source made the active and inactive calls.

SUMO E1/E2, sequence (Q9UBE0 whole entry): as the sequence (Q9UBE0 whole entry) above
SUMO E1/E2, sequence (Q9UBT2 whole entry): as the sequence (Q9UBT2 whole entry) above
SUMO E1/E2, sequence (P63279 whole entry): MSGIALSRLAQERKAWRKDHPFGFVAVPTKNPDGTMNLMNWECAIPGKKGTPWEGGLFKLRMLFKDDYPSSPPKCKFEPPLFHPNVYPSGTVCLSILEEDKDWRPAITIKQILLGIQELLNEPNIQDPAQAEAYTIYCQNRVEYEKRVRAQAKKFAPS
G-protein coupled receptor 55, sequence (Q9Y2T6 whole entry): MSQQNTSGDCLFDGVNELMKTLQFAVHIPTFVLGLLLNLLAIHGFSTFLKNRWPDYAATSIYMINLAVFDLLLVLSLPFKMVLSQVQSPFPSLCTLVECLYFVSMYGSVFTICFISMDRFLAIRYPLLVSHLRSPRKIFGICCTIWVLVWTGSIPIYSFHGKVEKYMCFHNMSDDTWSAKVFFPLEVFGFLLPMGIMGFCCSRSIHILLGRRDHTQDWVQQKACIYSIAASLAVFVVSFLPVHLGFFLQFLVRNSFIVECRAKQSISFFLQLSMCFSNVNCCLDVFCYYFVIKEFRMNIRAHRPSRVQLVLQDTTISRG

Usually IC50 stands for the concentration needed to halve the response being measured. As a reminder, the CC50 is the concentration giving 50% cytotoxicity. For the compound `COC(=O)C1=C(C)N(Cc2ccccc2)C(NCc2ccccc2)=N[C@H]1c1cccc(F)c1`, the IC50 in experiment [1] is 1.25 µM (active); in the experiment on CHO-K1 it was > 66.2 µM (inactive); in [4] it was 23.8 µM (inactive); in experiment [5], > 66.2 µM (inactive); in experiment [6], 17.9 µM (inactive); in the experiment “cells”, 19.8 µM (active). The IC50 in experiment [7] was > 96.6 µM (inactive). The cytotoxic concentration (CC50) in experiment [2] is 15 µM (active); in experiment [3] it was 14.9 µM (active).

Regarding `Cc1ccc(-c2nc3ccccc3o2)cc1NC(=O)c1ccc2c(c1)OCO2`, the concentration for half-maximal inhibition (IC50) on SUMO-activating enzyme was 34.1 µM (active).

What is called EC50 is the concentration needed to bring the measured effect to its halfway point. Higher therefore signals a less potent agent. In the case of `Nc1c2cnnc-2nc(SCC(=O)c2ccc(Br)cc2)n1-c1ccc(Br)cc1`, the EC50 in experiment [8], in [9] and in [10] was > 120 µM (not active) in each case. For the same compound, the IC50 at SUMO-activating enzyme was 59.1 µM (active).

As to `Cc1ccc(Nc2cc3ccccc3c(=O)[nH]2)cc1`, on SUMO E1/E2, the half-inhibitory concentration (IC50) is 19.8 µM (active).

As to `CC(=O)N(O)CCCCCNC(=O)CCC(=O)N(O)CCCCCNC(=O)CCC(=O)N(O)CCCCCNC(=O)CCC(=O)O`, the IC50 (on Exodeoxyribonuclease V; in experiment [11]) was > 118 µM (inactive) throughout.

In the case of `Cc1ccc(C2Nc3ccc(C(=O)O)cc3C3C=CCC32)cc1` (stereo not drawn), the IC50 at SUMO E1/E2 is > 100 µM (inactive).
